Holding throughout (assay type): cell-based
Assay [1] concerns the target T1, cyclooxygenase (Rattus norvegicus, UniProt Q63921).
T1 construct: host or cells: RBL-1 (rat basophilic leukemia) cells
T1 sequence (Q63921 27-602): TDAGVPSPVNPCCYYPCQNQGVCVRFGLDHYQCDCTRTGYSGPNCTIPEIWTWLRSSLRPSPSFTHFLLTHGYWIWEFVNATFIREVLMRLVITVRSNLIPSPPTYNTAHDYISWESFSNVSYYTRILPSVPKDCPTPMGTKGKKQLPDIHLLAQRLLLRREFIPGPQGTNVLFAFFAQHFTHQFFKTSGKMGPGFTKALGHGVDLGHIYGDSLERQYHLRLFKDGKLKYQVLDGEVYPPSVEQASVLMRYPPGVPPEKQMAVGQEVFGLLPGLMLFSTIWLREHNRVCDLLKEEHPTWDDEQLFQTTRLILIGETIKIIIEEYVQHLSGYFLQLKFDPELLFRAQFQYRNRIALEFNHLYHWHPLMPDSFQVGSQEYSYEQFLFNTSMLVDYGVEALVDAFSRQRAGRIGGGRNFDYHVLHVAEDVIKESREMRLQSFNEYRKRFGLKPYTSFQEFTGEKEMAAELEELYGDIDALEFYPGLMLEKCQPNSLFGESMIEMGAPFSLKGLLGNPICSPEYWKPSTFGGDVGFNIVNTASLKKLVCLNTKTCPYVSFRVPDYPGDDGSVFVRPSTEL
Nature of the assay: ARBC whole cell cyclooxygenase assay (RBL-1 cells, PGF2α formation by RIA). On the set-up: key: N @ 16 μmolar is not active at 16 μmolar. The following applies: RBL-1 whole cells; @ 16 μM. Here is the method:
(§1) ARBL/ARBC Whole Cell 5-Lipoxygenase and Cyclooxyqenase Assays
(§2) The rat basophilic leukemia cell line (RBL-1) was obtained from the American Type Culture Collection (Rockville, Md.).
(§3) Radioimmunoassay (RIA) kits for LTB4 and PGF2α determination were obtained from Amersham (Arlington Heights, Ill.) and Seragen (Boston, Mass.), respectively.
(§4) RBL-1 cells are grown in suspension culture in Eagle's minimum essential medium supplemented with 12% fetal bovine serum at 37° C. in an incubator supplied with air-5% carbon dioxide. Cells are harvested by centrifugation. They are washed with cold phosphate buffered saline pH 7.4 (PBS; NaCl, 7.1 g; Na2 HPO4, 1.15 g; KH2 PO4, 0.2 g; and KCl, 0.2 g/L). Cells are finally suspended in PBS containing 1.0 mM calcium at a density of 2×10^6 cells/mL. Cells are incubated with and without test agent (in DMSO) (1% DMSO is without effect on arachidonic acid metabolism) for 10 minutes at room temperature. Calcium inonophore A23187 (5 μM) is added and cells are incubated for 7 minutes at 37° C. The reaction is stopped by chilling the tubes on ice for 10 minutes. Cells are separated by centrifugation and the supernatant is stored at -20° . Aliquots (100 μL) are analyzed for LTB4 and PGF2α using radioimmunoassay kits as provided by the supplier.
(§5) Table 1 contains biochemical data obtained from this whole cell assay as IC50 s which are calculated as the concentration of test compound causing 50% inhibition of LTB4 or PGF2α formation or in percent inhibition at the given micromolar concentration. N at 10 or 16 is not active at 10 μmolar or 16 μmolar.

The target in assay [2] is T2, 5-lipoxygenase (Rattus norvegicus, UniProt P12527).
T2 construct: host or cells: RBL-1 (rat basophilic leukemia) cells
T2 sequence (P12527 1-673): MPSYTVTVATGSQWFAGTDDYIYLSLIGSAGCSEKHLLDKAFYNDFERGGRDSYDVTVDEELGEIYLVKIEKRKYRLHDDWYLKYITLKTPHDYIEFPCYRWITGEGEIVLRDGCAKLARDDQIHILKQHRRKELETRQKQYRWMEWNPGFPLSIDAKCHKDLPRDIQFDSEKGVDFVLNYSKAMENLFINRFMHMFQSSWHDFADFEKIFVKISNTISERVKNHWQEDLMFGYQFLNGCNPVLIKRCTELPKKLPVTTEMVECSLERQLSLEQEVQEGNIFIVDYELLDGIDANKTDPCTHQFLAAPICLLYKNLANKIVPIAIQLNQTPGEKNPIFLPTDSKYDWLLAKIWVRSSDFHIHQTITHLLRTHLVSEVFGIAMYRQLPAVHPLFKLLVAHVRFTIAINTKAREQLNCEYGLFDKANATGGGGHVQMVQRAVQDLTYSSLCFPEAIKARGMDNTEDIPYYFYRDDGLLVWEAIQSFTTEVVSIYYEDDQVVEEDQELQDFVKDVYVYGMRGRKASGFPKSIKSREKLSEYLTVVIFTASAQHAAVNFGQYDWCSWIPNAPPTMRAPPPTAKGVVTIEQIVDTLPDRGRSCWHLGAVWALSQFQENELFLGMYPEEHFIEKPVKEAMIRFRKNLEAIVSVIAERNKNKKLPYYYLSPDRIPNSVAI
Nature of the assay: ARBL whole cell 5-lipoxygenase assay (RBL-1 cells, LTB4 formation by RIA). The following applies: RBL-1 whole cells; for inhibition at 16 µM / inhibition at 10 µM: read-out: ARBL % inhibition at the given micromolar concentration (LTB4 formation); for IC50: A23187 5 μM, read-out: ARBL IC50 (50% inhibition of LTB4 formation). The procedure:
as §1, §2, §3, §4, §5

Assay [3] concerns the target T2, 5-lipoxygenase. The description is as above. Details: key: N @ 16 μmolar is not active at 16 μmolar. The following applies: RBL-1 whole cells; @ 16 μM. The procedure:
as §1, §2, §3, §4, §5

Assay [4] has as its target T1, cyclooxygenase. Nature of the assay: ARBC whole cell cyclooxygenase assay (RBL-1 cells, PGF2α formation by RIA). The following applies: RBL-1 whole cells; for IC50: A23187 5 μM, read-out: ARBC IC50 (50% inhibition of PGF2α formation). Here is the method:
as §1, §2, §3, §4, §5

For assay [5], the target named is T1, cyclooxygenase. The description is as above. Details: key: N @ 10 μmolar is not active at 10 μmolar. The following applies: RBL-1 whole cells; @ 10 μM. Here is the method:
as §1, §2, §3
as §4, with “supplier. […]” for “supplier.”

Assay [6] concerns the target T2, 5-lipoxygenase. Nature of the assay: ARBL whole cell 5-lipoxygenase assay (RBL-1 cells, LTB4 formation by RIA). On the set-up: key: N @ 10 μmolar is not active at 10 μmolar. The following applies: RBL-1 whole cells; @ 10 μM. Here is the method:
as §1, §2, §3, §4, §5

The mark [7] stands for this setting: read-out: ARBC % inhibition at the given micromolar concentration (PGF2α formation).

Regarding `CCOC(=O)N(O)C(C)c1ccc(C)c(Nc2ccccc2C(=O)OC)c1C` (stereo not drawn) [Example 43], the “ARBC activity (N = not active)” value in assay [1] is reported as “N”. In assay [2], the inhibition at 16 µM came out at 100%.

As to `CC(=O)N(O)C(C)c1ccc(C)c(Nc2ccccc2C(=O)O)c1C` (stereo not drawn) [Example 52], the “ARBC activity (N = not active)” value in assay [1] is on record as “N”. For the same molecule, the “ARBL activity (N = not active)” value in assay [3] is recorded as “N”.

For the molecule `CCOC(=O)N(O)Cc1cccc(Nc2ccccc2C(=O)OC)c1Cl` [Example 40, 2-[[2-chloro-3-[[(ethoxycarbonyl)hydroxyamino]methyl]phenyl]amino]benzoic acid, methyl ester], the IC50 (in general, the midpoint of a concentration-inhibition curve) in assay [2] was 0.21 µM; in assay [4] it was 0.67 µM.

As for `COC(=O)c1ccccc1Nc1cccc(C(C)N(O)C(C)=O)c1Cl` (stereo not drawn) [Example 33, 2-[[3-[1-(acetylhydroxyamino)ethyl]-2-chlorophenyl]amino]benzoic acid methyl ester], the “ARBC activity (N = not active)” value in assay [5] is on record as “N”. Moreover, the inhibition at 10 µM in assay [2] amounted to 100%.

For `COC(=O)c1ccccc1Nc1c(Cl)ccc(C(C)N(O)C(C)=O)c1Cl` (stereo not drawn) [Example 39], the inhibition at 10 µM in assay [2] amounted to 100%; in assay [4] (setting [7]), 52%.

Take `CNC(=O)N(O)Cc1cccc(Nc2ccccc2C(=O)O)c1C` [Example 50]: in assay [3], the “ARBL activity (N = not active)” value is “N”. The inhibition at 16 µM in assay [4] (setting [7]) came out at 56%.

With `COC(=O)c1ccccc1Nc1c(Cl)ccc(CN(O)C(C)=O)c1Cl` [Example 38], the IC50 in assay [2] turned out to be 0.36 µM; in assay [4], 6 µM.

With `CC(=O)N(O)C(C)c1ccc(Cl)c(Nc2ccccc2C(=O)O)c1Cl` (stereo not drawn) [Example 57], in assay [6], the “ARBL activity (N = not active)” value is on record as “N”. Also, the inhibition at 10 µM in assay [4] (setting [7]) is 53%.

For the molecule `CC(=O)N(O)C(C)c1cccc(Nc2ccccc2C(=O)O)c1Cl` (stereo not drawn) [Example 47], the “ARBL activity (N = not active)” value in assay [6] was “N”. For the same molecule, the inhibition at 10 µM in assay [4] (setting [7]) stood at 79%.

Turning to `COC(=O)c1ccccc1Nc1cccc(CN(O)C(C)=O)c1C` [Example 34], the IC50 in assay [2] was under 0.0625 µM; in assay [4], 10 µM.

On to `CC(=O)N(O)Cc1ccc(Cl)c(Nc2ccccc2C(=O)O)c1Cl` [Example 55], for which the “ARBL activity (N = not active)” value in assay [6] is “N”. Moreover, the inhibition at 10 µM in assay [4] (setting [7]) was found to be 83%.

Take `CC(=O)N(O)C(C)c1cccc(Nc2ccccc2C(=O)O)c1C` (stereo not drawn) [Example 51]: the “ARBL activity (N = not active)” value in assay [3] was “N”. Also, the inhibition at 10 µM in assay [4] (setting [7]) came out at 70%.

As for `COC(=O)c1ccccc1Nc1cccc(C(C)N(O)C(C)=O)c1C` (stereo not drawn) [Example 35], the “ARBC activity (N = not active)” value in assay [5] is listed as “N”. The inhibition at 10 µM in assay [2] turned out to be 100%.

On to `COC(=O)c1ccccc1Nc1cccc(CN(O)C(C)=O)c1Cl` [Example 37], for which the IC50 in assay [2] is 0.58 µM; in assay [4] it was 4.3 µM.

Turning to `CCOC(=O)N(O)Cc1cccc(Nc2ccccc2C(=O)OC)c1C` [Example 41, 2-[[3-[[(Ethoxycarbonyl)hydroxyamino]methyl]-2-methylphenyl]amino]benzoic acid methyl ester], the IC50 came out at 0.39 µM in assay [2] and 8.7 µM in assay [4].

`CNC(=O)N(O)Cc1cccc(Nc2ccccc2C(=O)OC)c1C` [Example 44, 2-[[3-[[Hydroxy[(methylamino)carbonyl]amino]methyl]-2-methylphenyl]amino]benzoic acid methyl ester]: the inhibition at 16 µM in assay [2] was over 95%; in assay [4] (setting [7]), 43%.

As to `COC(=O)c1ccccc1Nc1c(C)ccc(C(C)N(O)C(C)=O)c1C` (stereo not drawn) [Example 36], the “ARBC activity (N = not active)” value in assay [1] is listed as “N”. The inhibition at 16 µM in assay [2] was found to be 100%.

Turning to `CCOC(=O)N(O)C(C)c1ccc(C)c(Nc2ccccc2C(=O)O)c1C` (stereo not drawn) [Example 53], the “ARBL activity (N = not active)” value in assay [3] is listed as “N”. The inhibition at 16 µM in assay [4] (setting [7]) was found to be 53%.

Take `CC(=O)N(O)Cc1cccc(Nc2ccccc2C(=O)O)c1C` [Example 48]: in assay [6], the “ARBL activity (N = not active)” value is listed as “N”. Moreover, the IC50 in assay [4] is 1.9 µM.

`CCOC(=O)N(O)Cc1ccc(Cl)c(Nc2ccccc2C(=O)O)c1Cl` [Example 56]: the results for the inhibition at 16 µM in assay [2] and in assay [4] (setting [7]) were 47% and 89%, respectively.

For the molecule `CNC(=O)N(O)Cc1cccc(Nc2ccccc2C(=O)OC)c1Cl` [Example 46, 2-[[2-Chloro-3-[[hydroxy[(methylamino)carbonyl]amino]methyl]phenyl]amino]benzoic acid methyl ester], the results for the IC50 in assay [2] and in assay [4] were 0.36 µM and 4.7 µM, respectively.

Consider `CCOC(=O)N(O)Cc1cccc(Nc2ccccc2C(=O)O)c1C` [Example 49], for which the “ARBL activity (N = not active)” value in assay [3] is recorded as “N”. Also, the inhibition at 0.25 µM in assay [4] (@ 0.25 μM, read-out: ARBC % inhibition at the given micromolar concentration (PGF2α formation)) came to 67%.

Consider `CCOC(=O)N(O)Cc1ccc(Cl)c(Nc2ccccc2C(=O)OC)c1Cl` [Example 42], for which the IC50 in assay [2] came out at 0.33 µM; in assay [4] it was 3.7 µM.

As to `CC(=O)N(O)Cc1cccc(Nc2ccccc2C(=O)O)c1Cl` [Example 54], in assay [6], the “ARBL activity (N = not active)” value is reported as “N”. The inhibition at 10 µM in assay [4] (setting [7]) is 87%.

The record behind these values is patent US5017604A, “Novel fenamic acid methyl hydroxamate derivatives having cyclooxygenase and 5-lipoxygenase inhibition” (Warner-Lambert Company, priority 1990, dated 1991).
